Results published in the NIST ThermoML archive (doi:10.1021/je5010164).

Details: Liquid, Frequency=8 MHz, Pulse-echo method

C1CCCC1 [cyclopentane]
Details | speed of sound [m/s]
258.15 K, 100 kPa | 1419.1
258.15 K, 5072 kPa | 1446.1
258.15 K, 10244 kPa | 1473
258.15 K, 15262 kPa | 1498.1
258.15 K, 20158 kPa | 1521.7
258.15 K, 25083 kPa | 1544.5
258.15 K, 30141 kPa | 1567.1
273.15 K, 100 kPa | 1336.6
273.15 K, 5169 kPa | 1366.7
273.15 K, 10059 kPa | 1394.3
273.15 K, 15219 kPa | 1422
273.15 K, 20251 kPa | 1447.9
273.15 K, 25184 kPa | 1472.3
273.15 K, 30227 kPa | 1496.3
293.15 K, 105 kPa | 1230.1
293.15 K, 5059 kPa | 1263
293.15 K, 10088 kPa | 1294.4
293.15 K, 15198 kPa | 1324.6
293.15 K, 20121 kPa | 1352.3
293.15 K, 25192 kPa | 1379.6
293.15 K, 30134 kPa | 1405
313.15 K, 107 kPa | 1126.8
313.15 K, 5113 kPa | 1164
313.15 K, 10058 kPa | 1198.3
313.15 K, 15132 kPa | 1231.3
313.15 K, 20097 kPa | 1261.8
313.15 K, 25098 kPa | 1291
313.15 K, 30162 kPa | 1319.2
333.15 K, 149 kPa | 1026.6
333.15 K, 5035 kPa | 1067.6
333.15 K, 10139 kPa | 1107
333.15 K, 15108 kPa | 1142.5
333.15 K, 20130 kPa | 1176.2
333.15 K, 25152 kPa | 1208
333.15 K, 30170 kPa | 1238
353.15 K, 261 kPa | 929.4
353.15 K, 5019 kPa | 974.63
353.15 K, 10069 kPa | 1018.2
353.15 K, 15107 kPa | 1058.1
353.15 K, 20063 kPa | 1094.4
353.15 K, 25009 kPa | 1128.3
353.15 K, 30157 kPa | 1161.5
